Assay results as given in patent US5608095A, “Alkyl-4-silyl-phenols and esters thereof as antiatherosclerotic agents” (Hoechst Marion Roussel, Inc., priority 1996, dated 1997).
Like-named read-outs stand apart in the source and are kept apart here.

How the values were obtained:
VCAM-1 = test: Cell surface ELISA for VCAM-1 in human umbilical vein endothelial cells (HUVEC), TNF-alpha induced; assay type: cell-based; conditions: 50 μM, average of three runs
Experimental: (§1) Cell Surface ELISA for VCAM-1/ICAM-1
(§2) Proliferating human umbilical vein endothelial cells (HUVEC) or human aortic smooth muscle cells (HASMC) from Clonetics (San Diego, Calif.) were plated onto 96-well plates in 100 μL medium per well at 20,000 cells per cm^2. The cultures were maintained in growth medium (EGM or SMGM2, Clonetics, San Diego, Calif.) for two days prior to addition of cytokines or drugs. Cytokines plus or minus compounds were added for 20 to 24 hours prior to analysis for adhesion molecule levels. Tumor necrosis factor (Genzyme, Cambridge, Mass.) was added to cultures at 500-1000 units/mL. Interleukin-4 (GIBCO-BRL, Gaithersburg, Md.) was added to cultures at 100-200 pg/mL. (Additions were made by transferring 100 [μL of cytokines plus compounds serially diluted on a separate 96-well plate into the plates containing cells. The medium on the cultures was not exchanged prior to addition of effectors). The culture medium was removed, and the monolayers were washed twice with Hanks buffered saline solution (HBSS) at room temperature. The primary antibody (anti-human VCAM-1 from Upstate Biotechnology, Inc., Lake Placid, N.Y. or anti-human ICAM-1 from Immunotech, Inc., Westbrook, Me.) was added to each well (1 μg/mL in HBSS plus 5% newborn calf serum, GIBCO-BRL, Gaithersburg, Md.) and incubated at 37° C. for 1 hr. The wells were washed twice with HBSS, then 100 μL of a 1/1000 dilution of goat anti-mouse IgG conjugated to horse radish peroxidase (BioRad, Hercules, Calif.) in HBSS plus 5% newborn calf serum was added to each well and incubated for 1 hr at 37° C. The wells were washed three times with HBSS, then 100 μL of TMB substrate (BioRad, Hercules, Calif.) was added to each well. The reaction was stopped after blue color developed by addition of 50 μL of 1N H2 SO4. Absorbance is measured at 450 nm with a plate reader. IC50 values were determined from curves of absorbance values obtained from serial dilutions of compounds (dissolved in dimethyl sulfoxide).
(§3) The IC50 value is defined as the drug concentration that inhibits the cytokine-induced adhesion molecule expression by 50%. Maximal values for adhesion molecule expression in cytokine-induced cultures was […] the basal level of adhesion molecule expression (minus cytokines) in the cultures to determine the level of induction. […] Each drug concentration was tested in quadruplicate wells. Single point tests of compounds at 50 μM were assayed as described for IC50 determinations, except that the data represent the level of inhibition without correction for basal expression. (Basal adhesion molecule expression was 10-20% of the total induced expression). Table 1 summarizes the ability of various compounds of this invention to inhibit VCAM-1 using human aortic smooth muscle cells (HASMC). In these experiments, the cells were coincubated with interleukin-4 and the compounds listed about 20 hr before assaying cell surface VCAM-1 levels. Each column represents a separate experiment.
(§4) In these experiments, the cells were coincubated with tumor necrosis factor-alpha along with the indicated compounds about 20 to 24 hr before assaying cell surface adhesion molecule expression.

ICAM-1 = test: Cell surface ELISA for ICAM-1 in human umbilical vein endothelial cells (HUVEC), TNF-alpha induced; assay type: cell-based; conditions: 50 μM, average of two runs, numbers in parentheses represent negative values
Experimental: as §1, §2, §3, §4

[1] = Clinical chemistries in serum of rats; assay type: in vivo, male Sprague-Dawley rats; conditions: for response vs control in vivo at 0.3 % / response vs control in vivo at 0.1 %: po, 96 h
From the text: A typical experiment consisted of 4-6 groups of rats (N=5 per group) with 1 group being a control which received no MDL compound and the other groups being treated with 0.3% MDL compound. Some of the compounds were either repeated at 0.3% or evaluated again at the lower dose of 0.1%. Male Sprague-Dawley rats, 50-100 g, (Harlan Laboratories, Indianapolis, Ind.) were housed in groups of 5, fed ad libitum water and Purina Rodent chow (#5002) with or without MDL compound as a dietary admixture for 4 days. Dietary admixtures (0.3%) were made by mixing 1.2 grams of an MDL compound with 400 grams of Purina rodent chow (#5002). The MDL compound was mixed with approximately 50 grams of food using a mortar and pestle. This was added to the remainder of the food and mixed for 3 hours on a rotary mixer. In the morning of day 5, non-fasted rats were anesthetized with carbon dioxide, and blood was collected by cardiac puncture. Rats were sacrificed by cervical dislocation. Body weights and liver weights were recorded in grams. Food consumption was recorded as grams.cndot.day^-1.cndot.rat^-1. Deaths were recorded as mortality. Aliquots of fresh serum were used for clinical chemistries, thiobarbituric acid reactive substances (TBARS) and conjugated diene measurements. Aliquots of serum (~0.5mL) and whole livers were frozen at -20° C. for compound and metabolite concentration determination at a later time.
Blood was allowed to clot at room temperature for 30 minutes. Serum was obtained after centrifugation for 10 min at 4° C. at 3000 rpm in a Beckman J-6M/E centrifuge with a JS-4.2 rotor. Fresh serum was analyzed by a COBAS MIRA S autoanalyzer (Roche Diagnostics) using Roche diagnostic reagents for the following clinical chemistry measurements: alkaline phosphatase (ALP, kit #44553), alanine transaminase (ALT, kit #42375), aspartate aminotransferase (AST, kit #42381), total cholesterol (CHOL, kit #44334), triglyceride (TG, kit #44120), and glucose (GLU, kit #44558). ALP, ALT, and AST were calculated as units/L. Cholesterol, triglycerides, and glucose were calculated as mg/dL.

[2] = Food consumption, body and liver weight in cholesterol-fed rabbits; assay type: in vivo, female New Zealand White rabbits; conditions: for body wt., percent of control / lw/bw (liver weight/body weight), percent of control: rabbit
Summary of the method: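 Female New Zealand White rabbits fed 100 g/day of 0.2% cholesterol chow sprayed with compound (mostly 0.4%; some at 0.26% or 0.6%) from ethanol or diethyl ether:ethanol 3:2, for 7 days (14 days at 0.6%). Daily food intake, terminal body and liver weights recorded in grams.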

[3] = Rattus norvegicus, read-out: CHOL (total cholesterol), percent of control
[4] = Rattus norvegicus, read-out: TRIG (triglycerides), percent of control
[5] = rat serum, diet 0.3%, 4 days, read-out: CHOL (total cholesterol), percent of control
[6] = rat serum, diet 0.3%, 4 days, read-out: TRIG (triglycerides), percent of control
[7] = rat serum, diet 0.1%, 4 days, read-out: CHOL (total cholesterol), percent of control
[8] = rat serum, diet 0.1%, 4 days, read-out: TRIG (triglycerides), percent of control

Row | SMILES | VCAM-1 % inh. (VCAM-1) [%] | ICAM-1 % inh. (ICAM-1) [%] | response vs control in vivo at 0.3 % [1, 3] [%] | response vs control in vivo at 0.3 % [1, 4] [%] | ALP (alkaline phosphatase), percent of control ([1]; rat serum, diet 0.3%, 4 days) [%] | ALT (alanine aminotransferase), percent of control ([1]; rat serum, diet 0.3%, 4 days) [%] | AST (aspartate aminotransferase), percent of control ([1]; rat serum, diet 0.3%, 4 days) [%] | GLUC (glucose), percent of control ([1]; rat serum, diet 0.3%, 4 days) [%] | food (grams eaten per day per rabbit), percent of control ([2]; diet 0.4%, 7 days) [%] | body wt., percent of control ([2]; diet 0.4%, 7 days) [%] | lw/bw (liver weight/body weight), percent of control ([2]; diet 0.4%, 7 days) [%] | response vs control in vivo at 0.3 % [1, 5] [%] | response vs control in vivo at 0.3 % [1, 6] [%] | also measured
1 | CC(C)(C)c1cc(OC[Si](C)(C)c2ccccc2)cc(C(C)(C)C)c1OC(=O)CCC(=O)O [MDL 103,076, 2,6-Di-t-butyl-4-[(dimethylphenylsilyl)methyloxy]phenol succinic acid ester] | 7.3 | 76 | 114 | 77 | 201 | 132 | 99 | 99 |  |  |  |  |  | 
2 | CC(C)(C)c1cc(OC[Si](C)(C)c2ccccc2)c(C(C)(C)C)cc1O [MDL 104,962, 2,5-Di-t-butyl-4-[(dimethylphenylsilyl)methyloxy]phenol] |  |  |  |  | 130 | 112 | 109 | 91 | 69 | 97 | 71 | 99 | 74 | 
3 | CC(=O)Oc1ccc(OC[Si](C)(C)c2ccccc2)cc1C(C)(C)C [MDL 105,443, 2-t-Butyl-4-[(dimethylphenylsilyl)methyloxy]phenol acetic acid ester] | 3.0 | 73.0 |  |  | 90 | 156 | 171 | 98 | 100 | 101 | 90 | 131 | 126 | response vs control in vivo at 0.1 % [1, 7]: 111%; response vs control in vivo at 0.1 % [1, 8]: 111%; ALP (alkaline phosphatase), percent of control ([1]; rat serum, diet 0.1%, 4 days): 101%; ALT (alanine aminotransferase), percent of control ([1]; rat serum, diet 0.1%, 4 days): 116%; AST (aspartate aminotransferase), percent of control ([1]; rat serum, diet 0.1%, 4 days): 94%; GLUC (glucose), percent of control ([1]; rat serum, diet 0.1%, 4 days): 106%
4 | CC(C)(C)c1cc(OC[Si](C)(c2ccccc2)c2ccccc2)cc(C(C)(C)C)c1O [MDL 104,599, 2,6-Di-t-butyl-4-[(diphenylmethylsilyl)methloxy]phenol] | 12.3 |  |  |  | 110 | 91 | 76 | 111 | 98 | 99 | 86 | 94 | 100 | 
5 | COc1ccc([Si](C)(C)COc2ccc(O)c(C(C)(C)C)c2)cc1 [MDL 106,834, 2-t-Butyl-4-[(dimethyl-p-methoxylphenylsilyl)methyloxy]phenol] |  |  |  |  | 69 | 141 | 122 | 95 | 99 | 99 | 94 | 150 | 83 | 
6 | CC(C)(C)c1cc(SC[Si](C)(C)c2ccccc2)cc(C(C)(C)C)c1OC(=O)CCC(=O)O [MDL 103,141, 2,6-Di-t-butyl-4-[(dimethylphenylsilyl)methylthio]phenol sucinic acid ester] | 1.3 | 79.5 | 119 | 47 | 147 | 126 | 120 | 107 |  |  |  |  |  | 
7 | CC(C)(C)c1cc(OC[Si](C)(C)c2ccccc2)ccc1O [MDL 103,491, 2-t-Butyl-4-[(dimethylphenylsilyl)methyloxy]phenol] | 12.0 | 80 |  |  | 80 | 127 | 114 | 94 | 100 | 100 | 89 | 146 | 131 | food (grams eaten per day per rabbit), percent of control ([2]; diet 0.6%, 14 days): 80%; body wt., percent of control ([2]; diet 0.6%, 14 days): 95%; lw/bw (liver weight/body weight), percent of control ([2]; diet 0.6%, 14 days): 96%; response vs control in vivo at 0.1 % [1, 7]: 112%; response vs control in vivo at 0.1 % [1, 8]: 92%; ALP (alkaline phosphatase), percent of control ([1]; rat serum, diet 0.1%, 4 days): 116%; ALT (alanine aminotransferase), percent of control ([1]; rat serum, diet 0.1%, 4 days): 133%; AST (aspartate aminotransferase), percent of control ([1]; rat serum, diet 0.1%, 4 days): 94%; GLUC (glucose), percent of control ([1]; rat serum, diet 0.1%, 4 days): 101%
8 | Cc1cc(OC[Si](C)(C)c2ccccc2)c(C)c(C)c1O [MDL 105,314, 2,3,6-Trimethyl-4-[(dimethylphenylsdilyl)methloxy]phenol] | 10.7 | 75.5 | 110 | 78 | 154 | 113 | 76 | 115 |  |  |  |  |  | 
9 | CC(=O)Oc1c(C(C)(C)C)cc(OC[Si](C)(C)c2ccccc2)cc1C(C)(C)C [MDL 103,377, 2,6-Di-t-butyl-4-[(dimethylphenylsilyl)methyloxy]phenol acetic acid ester] | 18.3 |  |  |  | 147 | 145 | 149 | 102 |  |  |  | 93 | 85 | 
